Source: patent US20240261268A1, “METHODS OF SLOWING AN INCREASE IN BRAIN VENTRICULAR VOLUME” (VANDA PHARMACEUTICALS INC., priority 2022, published 2024)

Legend:
[1] = test system: adult subjects with relapsing MS; experiment: Phase III study: premature treatment discontinuation and deaths; type: in vivo
Method: A total of 1468 subjects were screened. Of those, 1133 subjects were randomized (567 to ponesimod 20 mg and 566 to teriflunomide 14 mg) across 162 sites in 28 countries, and 1131 subjects received at least one dose of study drug. The disposition of subjects is summarized in Table 1 and a summary of reasons (primary reason) for treatment discontinuation are shown in Table 2. Overall treatment and study discontinuation were balanced across both treatment arms. A total of 6.5% and 2.5% of the subjects discontinued due to AEs or tolerability related reasons in ponesimod 20 mg and teriflunomide 14 mg, respectively, while 1.9% and 4.3% discontinued due to efficacy related reasons. There were 2 deaths reported during the study—both on teriflunomide 14 mg.

[2] = test system: adult subjects with relapsing MS; experiment: 12-lead ECG heart rate and first-dose monitoring on Day 1; type: in vivo, human
Method: The incidence of treatment-emergent heart rate and rhythm (including hypotension) AESIs on Day 1 was higher in the ponesimod 20 mg arm (2.1%) than in the teriflunomide 14 mg arm (0.4%). However, the overall incidence of first dose AESI on Day 1 was low (2.1%) in ponesimod. None of these events were serious nor led to permanent discontinuation of study treatment. Discharge criteria at 4 hours post-dose were met for ca. 99% of subjects. […] ECG HR effect: nadir at 2 hours post-dose (siponimod—3-4 hours, fingolimod—around by 6 hours). Low incidence of low HR outliers (post-dose HR≤40 bpm), all 3 of them with a pre-treatment HR of <55 bpm, which is a known risk factor for post-dose bradycardia with SIP receptor modulators.
The mean heart rate reduction compared to pre-dose reached a maximum for ponesimod 20 mg at 2-hours post dose, −8.7 bpm compared to −1.7 bpm for teriflunomide 14 mg (FIG. 2).

[3] = test system: adult subjects with relapsing MS; experiment: MRI-based scaled brain ventricular volume (lateral + 3rd ventricle / ICV); type: in vivo, human
Text: Efficacy variable/timepoint: The endpoint was increase in ventricular volume up to the end of study (EOS). All available data up to EOS, regardless of treatment discontinuation was included (ITT approach).
Ventricular Volume (VV) data were obtained from MRI images from patients that participated in the OPTIMUM study. Data were obtained from those patients who had MRI imagines at baseline week 60 and week 108. One pre-requisite was to select only those patients who had all images completed.
Ventricular volume was estimated from MRI images collected at baseline (BL), week 60 and week 108 for 428 subjects treated with ponesimod and 427 with teriflunomide. Lesions were identified using T2-weighted and Proton Density (PD) MRIs. Ventricles were segmented using lesion-filled T1 images using with the longitudinal stream in FreeSurfer 7. For each subject, scaled ventricular volume (V) was computed as the sum of lateral and 3rd ventricle volumes divided by the intracranial volume (ICV) and expressed as a percentage. Average V (V) and average change in V (ΔV) from baseline at weeks 60 and 108 were compared across treatment arms. Ventricular volumes were correlated with Multiple Sclerosis Functional Composite (MSFC), Paced Auditory Serial Addition Test (PASAT), Average Timed 25 Foot Walk (T25FW), Average 9-Hole Peg Test (9-HPT), Single Digit Modality Test (SDMT), FSIQ-RMS and Expanded Disability Score (EDSS).

[4] = test system: adult subjects with relapsing MS; experiment: Phase III study ponesimod 20 mg vs teriflunomide 14 mg: treatment-emergent adverse events (Safety Set)
Method: A prospective, multicenter, randomized, double-blind, active controlled, parallel-group, phase III, superiority study was conducted.
The treatment period consisted of an up-titration period (from Day 1 to 14) and a maintenance period (Day 15 until EOT).
To reduce the first-dose effect of ponesimod, an up-titration scheme was implemented from Day 1 to Day 14: • Days 1 and 2; 2 mg. • Days 3 and 4; 3 mg. • Days 5 and 6; 4 mg. • Day 7; 5 mg. • Day 8; 6 mg. • Day 9; 7 mg. • Day 10; 8 mg. • Day 11; 9 mg. • Days 12, 13, and 14; 10 mg. • Day 15 until EOT; 20 mg.
The Safety Set (SAF) included all randomized subjects who received at least one dose of study treatment. Subjects were analyzed based on actual treatment taken, not randomized treatment.

[5] = ponesimod 20 mg N=565, teriflunomide 14 mg N=566, Safety Set
[6] = ponesimod 20 mg, teriflunomide 14 mg
[7] = week 60 and week 108 vs baseline, ponesimod n=428, teriflunomide n=427
[8] = Day 1, ponesimod N=565, teriflunomide N=566, Safety Set
[9] = treatment-emergent, ponesimod 20 mg N=565, teriflunomide 14 mg N=566, Safety Set

CCC/N=C1\S/C(=C\c2ccc(OC[C@H](O)CO)c(Cl)c2)C(=O)N1c1ccccc1C [ponesimod, (R)-5-[3-chloro-4-(2,3-dihydroxy-propoxy)-benz[Z]ylidene]-2-([Z]-propylimino)-3-o-tolyl-thiazolidin-4-one]
Premature discontinuation: Death [1, 5]: 0 n | Subjects discontinued due to AEs or tolerability related reasons [1, 6]: 6.5% | Mean heart rate reduction compared to pre-dose (maximum) ([2]; Day 1, 2 hours post dose, 12-lead ECG): −8.7 bpm | 2nd or higher degree AV block ([2]; Day 1, first dose): No 2nd or higher degree AV block was observed | ECG HR effect: time of nadir / maximum mean heart rate reduction post-dose ([2]; Day 1, first dose): 2 h | Subjects meeting discharge criteria at 4 hours post-dose ([2]; Day 1, first dose): ca. 99% | Subjects with asymptomatic post-dose HR≤40 bpm ([2]; Day 1, all had pre-treatment HR <55 bpm): 3 subjects | Rate of increase in ventricular volume lower compared to teriflunomide ([3]; week 60): 60% | Difference in ventricular volume increase, ponesimod minus teriflunomide (Δ60V^pon−Δ60V^ter) ([3]; week 60, p<0.001): −0.025% | Average change in scaled ventricular volume from baseline (Δ60V), percentage of ICV ([3]; week 60, p<0.001 vs baseline, ponesimod n=428, teriflunomide n=427): 0.026% | Reduction of atrophy compared to teriflunomide (FIGS. 4-6; 3rd and lateral ventricle) [3, 7]: greater | Ventricular enlargement compared to teriflunomide (FIG. 3) [3, 7]: less | Rate of increase in ventricular volume lower compared to teriflunomide ([3]; week 108): 45% | Difference in ventricular volume increase, ponesimod minus teriflunomide (Δ108V^pon−Δ108V^ter) ([3]; week 108, p<0.001): 0.043% | Average change in scaled ventricular volume from baseline (Δ108V), percentage of ICV ([3]; week 108, p<0.001 vs baseline, ponesimod n=428, teriflunomide n=427): 0.067% | Incidence of treatment-emergent heart rate and rhythm (including hypotension) AESIs on Day 1 ([4]; Day 1, ponesimod 20 mg arm, teriflunomide 14 mg arm): 2.1% | AESI effect on heart rate and rhythm (including hypotension) on Day 1: Subjects with at least one AE [4, 8]: 12(2.1) n (%) | AESI heart rate and rhythm on Day 1, PT: Atrioventricular block first degree [4, 8]: 3(0.5) n (%) | AESI heart rate and rhythm on Day 1, PT: Bradycardia [4, 8]: 4(0.7) n (%) | AESI heart rate and rhythm on Day 1, PT: Bundle branch block left [4, 8]: 1(0.2) n (%) | AESI heart rate and rhythm on Day 1, PT: Bundle branch block right [4, 8]: 1(0.2) n (%) | AESI heart rate and rhythm on Day 1, PT: Defect conduction intraventricular [4, 8]: 2(0.4) n (%) | AESI heart rate and rhythm on Day 1, PT: Electrocardiogram QT prolonged [4, 8]: 0 n (%) | AESI heart rate and rhythm on Day 1, PT: Presyncope [4, 8]: 0 n (%) | AESI heart rate and rhythm on Day 1, PT: Sinus arrhythmia [4, 8]: 1(0.2) n (%) | AESI heart rate and rhythm on Day 1, PT: Sinus bradycardia [4, 8]: 1(0.2) n (%) | Treatment-emergent AESI: Infection ([4]; only if serious or severe, ponesimod 20 mg N=565, teriflunomide 14 mg N=566, Safety Set): 9(1.6) n (%) | TEAEs leading to premature discontinuation of study drug: Subjects with at least one AE [4, 5]: 49(8.7) n (%) | TEAEs leading to premature discontinuation, SOC: Blood and lymphatic system disorders [4, 5]: 3(0.5) n (%) | TEAEs leading to premature discontinuation, SOC: Cardiac disorders [4, 5]: 1(0.2) n (%) | TEAEs leading to premature discontinuation, SOC: Eye disorders [4, 5]: 5(0.9) n (%) | TEAEs leading to premature discontinuation, SOC: Gastrointestinal disorders [4, 5]: 4(0.7) n (%) | TEAEs leading to premature discontinuation, SOC: General disorders and administration site conditions [4, 5]: 3(0.5) n (%) | TEAEs leading to premature discontinuation, SOC: Hepatobiliary disorders [4, 5]: 3(0.5) n (%) | TEAEs leading to premature discontinuation, SOC: Investigations [4, 5]: 12(2.1) n (%) | TEAEs leading to premature discontinuation, SOC: Musculoskeletal and connective tissue disorders [4, 5]: 1(0.2) n (%) | TEAEs leading to premature discontinuation, SOC: Neoplasms benign, malignant and unspecified (incl cysts and polyps) [4, 5]: 1(0.2) n (%) | TEAEs leading to premature discontinuation, SOC: Nervous system disorders [4, 5]: 2(0.4) n (%) | TEAEs leading to premature discontinuation, SOC: Pregnancy, puerperium and perinatal conditions [4, 5]: 3(0.5) n (%) | TEAEs leading to premature discontinuation, SOC: Psychiatric disorders [4, 5]: 1(0.2) n (%) | TEAEs leading to premature discontinuation, SOC: Reproductive system and breast disorders [4, 5]: 0 n (%) | TEAEs leading to premature discontinuation, SOC: Respiratory, thoracic and mediastinal disorders [4, 5]: 7(1.2) n (%) | TEAEs leading to premature discontinuation, SOC: Skin and subcutaneous tissue disorders [4, 5]: 1(0.2) n (%) | TEAEs leading to premature discontinuation, SOC: Social circumstances [4, 5]: 2(0.4) n (%) | TEAEs leading to premature discontinuation, SOC: Surgical and medical procedures [4, 5]: 0 n (%) | TEAEs leading to premature discontinuation, SOC: Vascular disorders [4, 5]: 3(0.5) n (%) | Treatment-emergent AESI: Effect on heart rate and rhythm (including hypotension) [4, 5]: 29(5.1) n (%) | Treatment-emergent AESI: Hepatobiliary disorders/Liver enzyme abnormality [4, 5]: 145(25.7) n (%) | Treatment-emergent AESI: Herpetic infection [4, 5]: 27(4.8) n (%) | Treatment-emergent AESI: Hypertension [4, 5]: 57(10.1) n (%) | Treatment-emergent AESI: Macular edema [4, 5]: 6(1.1) n (%) | Treatment-emergent AESI: Non-skin malignancy [4, 5]: 1(0.2) n (%) | Treatment-emergent AESI: Pulmonary events [4, 5]: 45(8.0) n (%) | Treatment-emergent AESI: Seizure [4, 5]: 8(1.4) n (%) | Treatment-emergent AESI: Skin malignancy [4, 5]: 5(0.9) n (%) | AESI category hepatobiliary disorders/liver enzyme abnormality [4, 6]: 25.7% | AESI category hypertension [4, 6]: 10.1% | AESI category pulmonary events [4, 6]: 8.0% | Proportion of subjects who experienced at least one SAE [4, 6]: 8.7% | Proportion of subjects who experienced at least one TEAE [4, 6]: 88.8% | TEAE: ALT increased [4, 6]: 19.5% | TEAE: headache [4, 6]: 11.5% | TEAE: nasopharyngitis [4, 6]: 19.3% | TEAE: upper respiratory tract infection [4, 6]: 10.6% | TEAEs leading to premature treatment discontinuation [4, 6]: 8.7% | Subjects with at least one AE [4, 9]: 502(88.8) n (%) | Subjects with at least one AE leading to study drug discontinuation [4, 9]: 49(8.7) n (%) | Subjects with at least one Drug-Related AE [4, 9]: 278(49.2) n (%) | Subjects with at least one Fatal AE [4, 9]: 0 n (%) | Subjects with at least one Serious AE [4, 9]: 49(8.7) n (%) | Subjects with at least one Severe AE [4, 9]: 39(6.9) n (%)
